Experimental data: the CheMixHub viscosity set

Assay: xn = mol fraction of the nth substance listed

CCCCC + CO
Conditions | viscosity [mPa·s]
293.15 K, 101 kPa, x1 = 0.0471 | 0.5884
293.15 K, 101 kPa, x1 = 0.0999 | 0.5839
293.15 K, 101 kPa, x1 = 0.1602 | 0.5769
293.15 K, 101 kPa, x1 = 0.2288 | 0.5663
293.15 K, 101 kPa, x1 = 0.3074 | 0.5509
293.15 K, 101 kPa, x1 = 0.3999 | 0.5282
293.15 K, 101 kPa, x1 = 0.5084 | 0.4953
293.15 K, 101 kPa, x1 = 0.6397 | 0.4464
293.15 K, 101 kPa, x1 = 0.7999 | 0.3733
298.15 K, 101.33 kPa, x2 = 0.0464 | 0.245
298.15 K, 101.33 kPa, x2 = 0.0696 | 0.249
298.15 K, 101.33 kPa, x2 = 0.1597 | 0.265
298.15 K, 101.33 kPa, x2 = 0.2228 | 0.279
298.15 K, 101.33 kPa, x2 = 0.4412 | 0.327
298.15 K, 101.33 kPa, x2 = 0.6294 | 0.384
298.15 K, 101.33 kPa, x2 = 0.741 | 0.424
298.15 K, 101.33 kPa, x2 = 0.7958 | 0.445
298.15 K, 101.33 kPa, x2 = 0.9419 | 0.518
298.15 K, 101.33 kPa, x2 = 0.9734 | 0.537
303.15 K, 101 kPa, x1 = 0.0471 | 0.5267
303.15 K, 101 kPa, x1 = 0.0999 | 0.5186
303.15 K, 101 kPa, x1 = 0.1602 | 0.5081
303.15 K, 101 kPa, x1 = 0.2288 | 0.4945
303.15 K, 101 kPa, x1 = 0.3074 | 0.4767
303.15 K, 101 kPa, x1 = 0.3999 | 0.4529
303.15 K, 101 kPa, x1 = 0.5084 | 0.421
303.15 K, 101 kPa, x1 = 0.6397 | 0.3765
303.15 K, 101 kPa, x1 = 0.7999 | 0.3135
313.15 K, 101 kPa, x1 = 0.0471 | 0.5012
313.15 K, 101 kPa, x1 = 0.0999 | 0.4866
313.15 K, 101 kPa, x1 = 0.1602 | 0.4694
313.15 K, 101 kPa, x1 = 0.2288 | 0.4492
313.15 K, 101 kPa, x1 = 0.3074 | 0.4254
313.15 K, 101 kPa, x1 = 0.3999 | 0.3963
313.15 K, 101 kPa, x1 = 0.5084 | 0.3607
313.15 K, 101 kPa, x1 = 0.6397 | 0.3156
313.15 K, 101 kPa, x1 = 0.7999 | 0.2574

OC1CCCCC1 + CN1CCCC1=O
Conditions | viscosity [mPa·s]
303.15 K, 101 kPa, x2 = 0.6223 | 16.55

CS(C)=O + CCCCCCO
101 kPa
Conditions | viscosity [mPa·s]
303.15 K, x1 = 0.1678 | 2.991
303.15 K, x1 = 0.1907 | 2.831
303.15 K, x1 = 0.3273 | 2.582
303.15 K, x1 = 0.3639 | 2.288
303.15 K, x1 = 0.4458 | 2.342
303.15 K, x1 = 0.522 | 2.088
303.15 K, x1 = 0.5483 | 2.171
303.15 K, x1 = 0.64 | 2.061
303.15 K, x1 = 0.6669 | 1.898
303.15 K, x1 = 0.7228 | 1.983
303.15 K, x1 = 0.8002 | 1.739
303.15 K, x1 = 0.8098 | 1.901
303.15 K, x1 = 0.8795 | 1.827
303.15 K, x1 = 0.9231 | 1.722
303.15 K, x1 = 0.9413 | 1.754
313 K, x1 = 0.1163 | 2.459
313 K, x1 = 0.203 | 2.239
313 K, x1 = 0.4013 | 1.891
313 K, x1 = 0.4964 | 1.793
313 K, x1 = 0.5978 | 1.719
313 K, x1 = 0.6873 | 1.666
313 K, x1 = 0.7968 | 1.593
313 K, x1 = 0.9124 | 1.574

CCCCCCCO + Cc1ccccc1
viscosity [mPa·s], 101 kPa
Conditions | 298.15 K | 308.15 K
x2 = 0.0525 | 4.969 | 3.846
x2 = 0.1014 | 4.357 | 3.429
x2 = 0.1518 | 3.776 | 3.068
x2 = 0.1859 | 3.412 | 2.862
x2 = 0.2489 | 2.873 | 2.456
x2 = 0.3011 | 2.473 | 2.202
x2 = 0.3504 | 2.153 | 1.942
x2 = 0.4006 | 1.843 | 1.719
x2 = 0.4494 | 1.63 | 1.542
x2 = 0.5003 | 1.435 | 1.357
x2 = 0.5486 | 1.245 | 1.223
x2 = 0.5903 | 1.12 | 1.094
x2 = 0.6493 | 0.965 | 0.967
x2 = 0.7011 | 0.893 | 0.874
x2 = 0.752 | 0.768 | 0.766
x2 = 0.8041 | 0.676 | 0.664
x2 = 0.8495 | 0.645 | 0.624
x2 = 0.9009 | 0.6 | 0.575
x2 = 0.9487 | 0.572 | 0.527

NS(=O)(=O)O + CS(C)=O
298 K, 101.33 kPa
Conditions | viscosity [mPa·s]
x1 = 0.02135 | 2.438
x1 = 0.04282 | 3.041
x1 = 0.06425 | 3.822
x1 = 0.08365 | 4.853

CCCCC + c1ccccc1
298.15 K, 101.33 kPa
Conditions | viscosity [mPa·s]
x2 = 0.1622 | 0.241
x2 = 0.3515 | 0.274
x2 = 0.4439 | 0.295
x2 = 0.5608 | 0.328
x2 = 0.6851 | 0.375
x2 = 0.8001 | 0.434
x2 = 0.9056 | 0.505

CS(C)=O + CC(C)O
viscosity [mPa·s]
Conditions | 298.15 K | 303.15 K | 308.15 K | 318.15 K
101 kPa, x1 = 0.0385 | 1.91 | 1.59 | 1.46 | –
101 kPa, x1 = 0.0787 | 1.77 | 1.49 | 1.36 | –
101 kPa, x1 = 0.1001 | – | 1.525 | – | –
101 kPa, x1 = 0.2059 | 1.51 | – | – | –
101 kPa, x1 = 0.2479 | 1.45 | 1.32 | 1.2 | –
101 kPa, x1 = 0.339 | 1.42 | 1.29 | – | –
101 kPa, x1 = 0.4639 | 1.45 | 1.32 | – | –
101 kPa, x1 = 0.5357 | 1.48 | 1.35 | 1.24 | –
101 kPa, x1 = 0.6422 | 1.55 | 1.42 | 1.32 | –
101 kPa, x1 = 0.7547 | 1.66 | 1.51 | 1.39 | –
101 kPa, x1 = 0.8134 | 1.72 | 1.57 | 1.45 | –
101 kPa, x1 = 0.8738 | 1.8 | 1.64 | 1.5 | –
101 kPa, x1 = 0.9005 | – | – | – | 1.285
101 kPa, x1 = 0.936 | 1.88 | 1.72 | – | –
101.3 kPa, x1 = 0.0788 | 1.742 | 1.576 | – | –
101.3 kPa, x1 = 0.1608 | 1.589 | 1.447 | – | –
101.3 kPa, x1 = 0.2475 | 1.473 | 1.358 | – | –
101.3 kPa, x1 = 0.3389 | 1.475 | 1.319 | – | –
101.3 kPa, x1 = 0.4347 | 1.451 | – | – | –
101.3 kPa, x1 = 0.5347 | 1.501 | 1.346 | – | –
101.3 kPa, x1 = 0.6423 | 1.597 | 1.406 | – | –
101.3 kPa, x1 = 0.7546 | 1.679 | 1.505 | – | –
101.3 kPa, x1 = 0.8737 | 1.828 | 1.622 | – | –

CCCCC + C1CCOC1
viscosity [mPa·s], 101 kPa
Conditions | x2 = 0.1001 | x2 = 0.2001 | x2 = 0.3001 | x2 = 0.4001 | x2 = 0.5001 | x2 = 0.6001 | x2 = 0.7001 | x2 = 0.8001 | x2 = 0.9001
293.15 K | 0.2331 | 0.2498 | 0.2688 | 0.2894 | 0.3116 | 0.3371 | 0.3686 | 0.4034 | 0.4485
298.15 K | 0.2241 | 0.2405 | 0.258 | 0.2768 | 0.2977 | 0.3204 | 0.347 | 0.38 | 0.4212

CCCCCCCO + CCCO
viscosity [mPa·s], 101 kPa
Conditions | 298.15 K | 308.15 K | 318.15 K
x2 = 0.05 | 5.555 | 4.09 | 3.044
x2 = 0.1 | 5.333 | 3.923 | 2.935
x2 = 0.15 | 5.11 | 3.762 | 2.83
x2 = 0.2 | 4.888 | 3.607 | 2.728
x2 = 0.25 | 4.667 | 3.456 | 2.627
x2 = 0.3 | 4.449 | 3.309 | 2.528
x2 = 0.35 | 4.235 | 3.166 | 2.429
x2 = 0.4 | 4.026 | 3.027 | 2.331
x2 = 0.45 | 3.822 | 2.89 | 2.234
x2 = 0.5 | 3.623 | 2.756 | 2.136
x2 = 0.55 | 3.431 | 2.624 | 2.039
x2 = 0.6 | 3.243 | 2.494 | 1.942
x2 = 0.65 | 3.061 | 2.364 | 1.845
x2 = 0.7 | 2.882 | 2.236 | 1.748
x2 = 0.75 | 2.707 | 2.107 | 1.654
x2 = 0.8 | 2.534 | 1.979 | 1.56
x2 = 0.85 | 2.362 | 1.849 | 1.47
x2 = 0.9 | 2.189 | 1.719 | 1.382
x2 = 0.95 | 2.013 | 1.587 | 1.299
